The structures appear in SMILES notation.

One series deals with PARP1 (Homo sapiens (Human), UniProt P09874). Kind of series: PARP enzyme activity assay (PARP1 chemiluminescent assay kit). Format: biochemical. The conditions noted are these: enzyme inhibitory activity, read-out: PARP-1 IC50. From the text: Experimental Materials: The PARP1 assay kit was purchased from BPS Bioscience, USA, specifically the 384-well chemiluminescent assay kit (Catalog No.: #80551).
Experimental Principle: PARP can catalyze the transfer of ADP-ribose residues from NAD+ to target substrates, thereby modifying proteins through ribosylation. This experiment measures PARP1 enzyme activity by detecting the poly(ADP-ribosylation) of histones by PARP1.
Preparation of Reagents and Test Compounds: The 10× assay buffer included in the kit was diluted to 1× with distilled water. The test compound (stock concentration of 10 mM) was diluted to 10 μM with a DMSO solution and then serially diluted in a 1:3 ratio. The serially diluted compounds were further diluted 10-fold with the 1× assay buffer.
Experimental Method: The procedure was carried out according to the kit's instructions:
1. The 5× histone mixture was diluted to 1× with PBS, and 25 μL was added to each well of a 384-well plate, incubating overnight at 4° C.
2. After incubation, 100 μL of PBST (0.05% Tween 20) was added to each well for washing, repeated three times. Then, 100 μL of blocking solution was added to each well and incubated at room temperature for 90 minutes.
3. After incubation, the wells were washed three times with PBST, and then 1.25 μL of 10× assay buffer, 1.25 μL of 10×PARP assay mixture, 2.5 μL of activation DNA (5×), and 7.5 μL of distilled water were added to each well.
4. […] The positive control group and the negative control group were added with 1× assay buffer containing the same concentration of DMSO.
5. Next, 10 μL of 2.5 ng/μL PARP1 enzyme was added to the test compound and positive control groups, while 10 μL of 1× assay buffer was added to the negative control group, and the mixture was incubated at room temperature for 60 minutes.
6. Streptavidin-HRP was diluted 1:50 with the blocking solution. After incubation, the plate was washed three times with PBST, and 25 μL of the diluted streptavidin-HRP solution was added to each well, incubating at room temperature for 30 minutes.
7. After incubation, the plate was washed three times with PBST, and 50 μL of the mixed substrate A and substrate B in equal volumes was added. The luminescence signal was immediately read on a Synergy HTX multi-mode reader.
8. Data analysis was performed using GraphPad Prism 8.0 software. The inhibition rate %=100*(average luminescence signal of the positive control group−luminescence signal of the compound)/(average luminescence signal of the positive control group−average luminescence signal of the negative control group). The IC50 value was obtained by plotting the logarithm of the compound concentration against the percentage inhibition rate.

Series [1] concerns MDA-MB-436 breast cancer cells. Description: Cell proliferation assay, MDA-MB-436. Format: cell-based. The conditions noted are these: Homo sapiens, MDA-MB-436, 168 h; proliferation, 7 days; read-out: MDA-MB-436 Cell IC50. As for the experimental part:
Experimental Materials: MDA-MB-436 or UWB1.289 cell lines were purchased from Cobioer Biosciences Co. Ltd. (Nanjing, China). The STR identification results were a complete match, and mycoplasma testing was negative. MDA-MB-436 cells were cultured in DMEM complete medium containing 10% fetal bovine serum, 1% penicillin-streptomycin, 1% insulin, and 16 μg/mL glutathione; UWB1.289 cells were cultured in RMPI1640 complete medium containing 10% fetal bovine serum and 1% penicillin-streptomycin.
1. MDA-MB-436 or UWB1.289 cells were cultured in the aforementioned medium (culture conditions: 37° C., 5.0% CO2 in air) until they reached the logarithmic growth phase. The cells were then digested with trypsin containing 0.25% EDTA, centrifuged at 1000 rpm, and the supernatant was discarded. Cell culture medium was added, and the cell suspension was adjusted to 2×10^4/mL after counting. 135 μL of the cell suspension per well was taken and cultured in a 96-well cell culture plate for 16 hours (culture conditions: 37° C., 5.0% CO2 in air).
2. The test compounds, stored at a concentration of 10 mM, were diluted 2.5 times with DMSO and then serially diluted in a 1:3 gradient (9 gradients). The gradient-diluted samples were further diluted 40 times with serum-free medium, and 15 μL of each was added to the 96-well cell culture plate. The positive control group received serum-free medium containing the same concentration of DMSO, and the negative control group received medium without cells. The cells were then cultured for an additional 7 days.
3. After the culture period, the cell culture plate was placed at room temperature for 30 minutes. Then, 100 μL of CellCounting-Lite 2.0 reagent (Vazyme, #DD1101) was added to each well, mixed thoroughly, and incubated in the dark at room temperature for 10 minutes. The luminescence signal was read using a Synergy HTX multi-mode reader.
4. Data analysis was performed using GraphPad Prism 8.0 software. The inhibition rate (%) was calculated as 100*(average luminescence signal of the positive control group−luminescence signal of the compound)/(average luminescence signal of the positive control group−average luminescence signal of the negative control group). The IC50 value was obtained by plotting the logarithm of the compound concentration against the percentage inhibition rate.

The nature of series [2]: Evaluation of pharmacokinetics in mice. The conditions noted are these: male, ICR (CD1), mouse, plasma, po, 10 mg/kg.

Sequence of PARP1 (P09874 whole entry): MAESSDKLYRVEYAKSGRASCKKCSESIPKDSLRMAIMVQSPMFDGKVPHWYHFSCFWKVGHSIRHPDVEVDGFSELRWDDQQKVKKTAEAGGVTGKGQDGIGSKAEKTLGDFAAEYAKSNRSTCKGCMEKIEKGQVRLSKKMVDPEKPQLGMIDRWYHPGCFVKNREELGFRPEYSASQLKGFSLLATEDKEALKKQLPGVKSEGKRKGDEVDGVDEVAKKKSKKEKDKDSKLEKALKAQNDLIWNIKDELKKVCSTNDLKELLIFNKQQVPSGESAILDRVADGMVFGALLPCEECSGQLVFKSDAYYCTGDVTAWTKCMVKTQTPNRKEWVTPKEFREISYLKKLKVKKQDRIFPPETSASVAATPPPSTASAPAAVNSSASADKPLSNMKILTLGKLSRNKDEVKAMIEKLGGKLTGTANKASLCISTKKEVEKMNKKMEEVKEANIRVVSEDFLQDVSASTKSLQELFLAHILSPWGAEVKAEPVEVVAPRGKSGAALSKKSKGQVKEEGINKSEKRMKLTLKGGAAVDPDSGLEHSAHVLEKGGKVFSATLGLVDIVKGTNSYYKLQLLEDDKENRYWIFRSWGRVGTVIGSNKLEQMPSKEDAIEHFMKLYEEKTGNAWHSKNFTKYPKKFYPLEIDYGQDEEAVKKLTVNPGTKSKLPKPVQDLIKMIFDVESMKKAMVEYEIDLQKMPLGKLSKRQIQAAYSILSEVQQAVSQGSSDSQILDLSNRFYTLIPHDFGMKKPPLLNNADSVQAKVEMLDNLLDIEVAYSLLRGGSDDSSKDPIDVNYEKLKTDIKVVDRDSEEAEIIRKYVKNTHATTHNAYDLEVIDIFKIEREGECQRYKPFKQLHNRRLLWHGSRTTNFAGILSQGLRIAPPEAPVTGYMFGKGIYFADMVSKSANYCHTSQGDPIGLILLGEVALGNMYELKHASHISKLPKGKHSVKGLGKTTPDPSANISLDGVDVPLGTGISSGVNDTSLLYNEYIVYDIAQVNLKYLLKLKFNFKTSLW

Turning to `CNC(=O)c1ccc(N2CCN(Cc3cnc4c(C)c(C(F)(F)F)c(=O)[nH]c4c3)C(CC#N)C2)cn1` (stereo not drawn) [Compound 3, 5-(3-(cyanomethyl)-4-((8-methyl-6-oxo-7-(trifluoromethyl)-5,6-dihydro-1,5-naphthyridin-3-yl)methyl)piperazin-1-yl)-N-methylpicolinamide], the IC50 at PARP1 was 1.53 nM.
The same measure, in the same setting: to `CNC(=O)c1ccc(N2CCN(Cc3cnc4c(C)c(C(F)(F)F)c(=O)[nH]c4c3)C(CCO)C2)cn1` (stereo not drawn) [Compound 5, 5-(3-(2-hydroxyethyl)-4-((8-methyl-6-oxo-7-(trifluoromethyl)-5,6-dihydro-1,5-naphthyridin-3-yl)methyl)piperazin-1-yl)-N-methylpicolinamide] belongs 27.2 nM.
On the same count and under the same terms, to `CNC(=O)c1ccc(N2CCN(Cc3cnc4c(C)c(C(F)(F)F)c(=O)[nH]c4c3)C(CO)C2)cn1` (stereo not drawn) [Compound 6, 5-(3-(hydroxymethyl)-4-((8-methyl-6-oxo-7-(trifluoromethyl)-5,6-dihydro-1,5-naphthyridin-3-yl)methyl)piperazin-1-yl)-N-methylpicolinamide] belongs 34.3 nM.
As to `CNC(=O)c1ccc(N2CCN(Cc3cnc4c(C)c(C(F)(F)F)c(=O)[nH]c4c3)CC2CC#N)cn1` (stereo not drawn) [Compound 73, 5-(2-(cyanomethyl)-4-((8-methyl-6-oxo-7-(trifluoromethyl)-5,6-dihydro-1,5-naphthyridin-3-yl)methyl)piperazin-1-yl)-N-methylpicolinamide], the IC50 in series [1] came out at 14.5 nM.
The same measure, in the same setting: the result for `CNC(=O)c1ccc(C2=CCN(Cc3cnc4c(C)c(C(F)(F)F)c(=O)[nH]c4c3)CC2C)cn1` (stereo not drawn) [Compound 80, N,3′-dimethyl-1′-((8-methyl-6-oxo-7-(trifluoromethyl)-5,6-dihydro-1,5-naphthyridin-3-yl)methyl)-1′,2′,3′,6′-tetrahydro-[3,4′-bipyridine]-6-carboxamide] reads 13.9 nM.
Still for that read-out and setting: to `CNC(=O)c1ccc(C2=C(C)CN(Cc3cnc4c(C)c(C(F)(F)F)c(=O)[nH]c4c3)CC2)cn1` [Compound 81, N,5′-dimethyl-1′-((8-methyl-6-oxo-7-(trifluoromethyl)-5,6-dihydro-1,5-naphthyridin-3-yl)methyl)-1′,2′,3′,6′-tetrahydro-[3,4′-bipyridine]-6-carboxamide] belongs 13.2 nM; to `CNC(=O)c1ccc(C2=CCN(Cc3cnc4c(C)c(C(F)(F)F)c(=O)[nH]c4c3)CC2)nc1` [Compound 82, N-methyl-1′-((8-methyl-6-oxo-7-(trifluoromethyl)-5,6-dihydro-1,5-naphthyridin-3-yl)methyl)-1′,2′,3′,6′-tetrahydro-[2,4′-bipyridine]-5-carboxamide], 5.83 nM.
Still for that read-out and setting: to `CNC(=O)c1ccc(N2CCN(Cc3cnc4c(C)c(C(F)(F)F)c(=O)[nH]c4c3)C[C@H]2C#N)cn1` [Compound 86, (S)-5-(2-cyano-4-((8-methyl-6-oxo-7-(trifluoromethyl)-5,6-dihydro-1,5-naphthyridin-3-yl)methyl)piperazin-1-yl)-N-methylpicolinamide] belongs 14.8 nM; to `CNC(=O)c1ccc(N2CCN(Cc3ccc4c(F)c(C)c(=O)[nH]c4c3)CC2)cn1` [Compound 94, 5-(4-((4-fluoro-3-methyl-2-oxo-1,2-dihydroquinolin-7-yl)methyl)piperazin-1-yl)-N-methylpicolinamide], 5.69 nM.
In series [2], `[2H]C([2H])([2H])NC(=O)c1ccc(N2CCN(Cc3cnc4c(C)c(C(F)(F)F)c(=O)[nH]c4c3)CC2)cn1` [Compound 95, N-(methyl-ds)-5-(4-((8-methyl-6-oxo-7-(trifluoromethyl)-5,6-dihydro-1,5-naphthyridin-3-yl)methyl)piperazin-1-yl)picolinamide] showed an area under the curve AUC(0-inf) of 2050 µg·h/mL, a Cmax of 37500 ng/mL and a half-life of 38 h. Also, the concentration for half-maximal inhibition (IC50) in series [1] amounted to 2.13 nM.
Take `Cc1c(C(F)(F)F)c(=O)[nH]c2cc(CN3CCN(c4ccc(C(=O)NCCO)nc4)CC3)cnc12` [Compound 96, N-(2-hydroxyethyl)-5-(4-((8-methyl-6-oxo-7-(trifluoromethyl)-5,6-dihydro-1,5-naphthyridin-3-yl)methyl)piperazin-1-yl)picolinamide]: the IC50 in series [1] was found to be 9.34 nM.
As to `Cc1c(C(F)(F)F)c(=O)[nH]c2cc(CN3CCN(c4ccc(C(=O)NCC(F)(F)F)nc4)CC3)cnc12` [Compound 97, 5-(4-((8-methyl-6-oxo-7-(trifluoromethyl)-5,6-dihydro-1,5-naphthyridin-3-yl)methyl)piperazin-1-yl)-N-(2,2,2-trifluoroethyl)picolinamide], the IC50 in series [1] turned out to be 2.12 nM.
Turning to `CCNC(=O)c1ccc(N2CCN(Cc3cnc4c(C)c(C(F)(F)F)c(=O)[nH]c4c3)CC2)cn1` [Compound 98, N-ethyl-5-(4-((8-methyl-6-oxo-7-(trifluoromethyl)-5,6-dihydro-1,5-naphthyridin-3-yl)methyl)piperazin-1-yl)picolinamide], the IC50 in series [1] is 1.22 nM.
The same measure, in the same setting: to `CNC(=O)c1ccc(N2CCN(Cc3cnc4c(C)c(C(F)(F)F)c(=O)[nH]c4c3F)CC2)cn1` [Compound 101, 5-(4-((4-fluoro-8-methyl-6-oxo-7-(trifluoromethyl)-5,6-dihydro-1,5-naphthyridin-3-yl)methyl)piperazin-1-yl)-N-methylpicolinamide] belongs 8.99 nM.
The same measure, in the same setting: to `CNC(=O)c1ccc(N2CCN(Cc3cnc4c(F)c(C)c(=O)[nH]c4c3)CC2)cn1` [Compound 103, 5-(4-((8-fluoro-7-methyl-6-oxo-5,6-dihydro-1,5-naphthyridin-3-yl)methyl)piperazin-1-yl)-N-methylpicolinamide] belongs 3.76 nM; to `CNC(=O)c1ccc(N2CCN(Cc3cnc4c(C)c(C(F)F)c(=O)[nH]c4c3)[C@H](C)C2)cn1` [Compound 104, (R)-5-(4-((7-(difluoromethyl)-8-methyl-6-oxo-5,6-dihydro-1,5-naphthyridin-3-yl)methyl)-3-methylpiperazin-1-yl)-N-methylpicolinamide], 6.5 nM; to `CNC(=O)c1ccc(N2CCN(Cc3cnc4c(C)c(C(F)F)c(=O)[nH]c4c3)C[C@H]2C)cn1` [Compound 105, (R)-5-(4-((7-(difluoromethyl)-8-methyl-6-oxo-5,6-dihydro-1,5-naphthyridin-3-yl)methyl)-2-methylpiperazin-1-yl)-N-methylpicolinamide], 4.93 nM.
The same measure, in the same setting: the result for `CNC(=O)c1ccc(C2=CCN(Cc3cnc4c(C)c(C(F)F)c(=O)[nH]c4c3)CC2)cn1` [Compound 106, 1′-((7-(difluoromethyl)-8-methyl-6-oxo-5,6-dihydro-1,5-naphthyridin-3-yl)methyl)-N-methyl-1′,2′,3′,6′-tetrahydro-[3,4′-bipyridine]-6-carboxamide] reads 0.78 nM.

The record behind these values is patent publication US20250051324A1, “PARP INHIBITOR, PHARMACEUTICAL COMPOSITION COMPRISING SAME, AND USE THEREOF” (KEYTHERA (SUZHOU) BIO-PHARMACEUTICALS CO., LIMITED, priority 2021, published 2025).
